The test system of data set [1] is Plasmodium falciparum. Description: Antimalarial activity against drug resistant Plasmodium falciparum W2 infected in human erythrocytes assessed as growth inhibition after 48 hrs by SYBR Green 1 staining-based fluorescence assay. The note with it: W2, 48 h. It is filed as functional, organism-based.
In data set [2] the test system is Plasmodium falciparum. Description: Antimalarial activity against drug resistant Plasmodium falciparum TM90C2B infected in human erythrocytes assessed as growth inhibition after 48 hrs by SYBR Green 1 staining-based fluorescence assay. The data set is classed as functional, organism-based.
The test system of data set [3] is Plasmodium falciparum. Description: Antimalarial activity against Plasmodium falciparum 3D7 infected in human erythrocytes assessed as growth inhibition after 48 hrs by SYBR Green 1 staining-based fluorescence assay. It is filed as functional, organism-based. The note with it: 3D7, 48 h.
A short description of data set [4]: Kinetic solubility of the compound in phosphate buffer at pH 1 at 200 uM. The data set is classed as physicochemical. As to conditions: read-out: Kinetic_solubility.
A short description of data set [5]: Kinetic solubility of the compound in fixanal buffer at pH 7.4 at 200 uM. It is filed as physicochemical. The note with it: read-out: Kinetic_solubility.
Data set [6] can be described thus: Intrinsic clearance in human liver microsomes at 3 uM assessed per mg of protein up to 45 mins in presence of NADPH by LC-MS/MS analysis. It is filed as ADME. As to conditions: read-out: CLH. Background: Liver microsomes are vesicles of endoplasmic reticulum, rich in cytochrome P450 enzymes.
A short description of data set [7]: Intrinsic clearance in rat hepatocytes at 3 uM assessed per 10^6 cells up to 45 mins […] by LC-MS/MS analysis. The note with it: read-out: CLH. The data set is classed as ADME, cell-based, Hepatocyte.
Data set [8] concerns cytochrome b-c1 complex. Description: Inhibition of cytochrome b-c1 complex bovine heart mitochondrial membranes assessed as reduction in cytochrome c reductase activity using decylubiquinol as substrate at 100 uM by UV-visible spectrophotometric analysis. Details: species or system Bos taurus. The note with it: cattle, probe decylubiquinol.
The subject of data set [9] is cytochrome b-c1 complex. Put plainly: Inhibition of cytochrome b-c1 complex bovine heart mitochondrial membranes assessed as reduction in cytochrome c reductase activity using decylubiquinol as substrate at 1 uM by UV-visible spectrophotometric analysis. Further details: species or system Bos taurus. As to conditions: cattle, probe decylubiquinol.

Values after ≈ are worked out from the molar mass of the structure shown. Some results are limits rather than exact numbers.

For orientation: IC50 means the concentration that inhibits the measured activity by half. For orientation: inhibition means the change of the read-out against control, counted positive when it falls.

For `O=C1C(O)=C([C@H]2CC[C@H](c3ccc(Cl)cc3)CC2)C(=O)c2ccccc21` [ATOVAQUONE], the IC50 with Plasmodium falciparum [1] is 0.3 nM; in the data set with Plasmodium falciparum [2], 9910 nM.

With `Cc1c(-c2ccnc(-c3ccc(OC(F)(F)F)cc3)c2)[nH]c2ccccc2c1=O`, the IC50 in the data set with Plasmodium falciparum [3] turned out to be 21 nM. Moreover, the results for the solubility kinetic at 200 µM in [4] and in data set [5] were 79 µM (≈ 31.3 µg/mL) and 2.1 µM (≈ 0.832 µg/mL), respectively. For the same molecule, in data set [6], the microsomal CLint at 3 µM is 7.7 µL/min/mg. For the same molecule, the hepatocyte CLint at 3 µM in data set [7] was 2.5 µL/min/1e6 cells. Also, the inhibition at 100 µM in the data set on cytochrome b-c1 complex [8] stood at 52%. The inhibition at 1 µM with cytochrome b-c1 complex [9] was found to be 81%.

`COc1ccc2c(=O)c(C)c(-c3ccc(-c4ccc(OC(F)(F)F)cc4)cn3)[nH]c2c1`: the IC50 with Plasmodium falciparum [3] is above 1000 nM.

As for `COc1ccc2c(=O)c(C)c(-c3cccc(-c4ccc(OC(F)(F)F)cc4)n3)[nH]c2c1`, the IC50 in the data set on Plasmodium falciparum [3] came out at 149 nM.

Consider `COc1ccc2c(=O)c(C)c(-c3ccnc(-c4ccc(OC(F)(F)F)cc4)c3)[nH]c2c1`, for which the IC50 was found to be 12 nM with Plasmodium falciparum [3], 4.2 nM with Plasmodium falciparum [1] and 7 nM in the data set on Plasmodium falciparum [2]. The solubility kinetic at 200 µM in data set [4] was 120 µM (≈ 51.2 µg/mL); in [5], below 1 µM. The inhibition at 100 µM with cytochrome b-c1 complex [8] turned out to be 63%. The inhibition at 1 µM with cytochrome b-c1 complex [9] was found to be 85%.

Turning to `COc1cccc2c(=O)c(C)c(-c3ccc(-c4ccc(OC(F)(F)F)cc4)nc3)[nH]c12`, in the data set on Plasmodium falciparum [3], the IC50 was above 1000 nM.

Take `O=c1c2c([nH]c3ccccc13)CN(Cc1ccc(Cl)c(Cl)c1)C2`: in the data set on Plasmodium falciparum [3], the IC50 worked out at 70 nM.

With `COc1cccc2[nH]c(-c3ccc(-c4ccc(OC(F)(F)F)cc4)nc3)c(C)c(=O)c12`, the IC50 in the data set with Plasmodium falciparum [3] is above 1000 nM.

Take `O=c1c2c([nH]c3ccccc13)CN(Cc1ccc(OC(F)(F)F)cc1)C2`: the IC50 in the data set with Plasmodium falciparum [3] is 200 nM.

As for `Cc1c(-c2ccc(-c3ccc(OC(F)(F)F)cc3)nc2)[nH]c2c(O)cccc2c1=O`, the IC50 with Plasmodium falciparum [3] was above 1000 nM.

As to `COc1ccc2c(=O)c(C)c(-c3ccc(-c4ccc(OC(F)(F)F)cc4)nc3)[nH]c2c1`, the IC50 in the data set with Plasmodium falciparum [3] came to 14 nM. For the same molecule, the solubility kinetic at 200 µM was 2.6 µM (≈ 1.11 µg/mL) in data set [4] and below 1 µM in [5]. The inhibition at 100 µM in the data set on cytochrome b-c1 complex [8] was found to be 55%. Besides, the inhibition at 1 µM with cytochrome b-c1 complex [9] amounted to 98%.

For the molecule `COc1ccc2c(=O)c(C)c(-c3cc(-c4ccc(OC(F)(F)F)cc4)ccn3)[nH]c2c1`, the IC50 in the data set on Plasmodium falciparum [3] was determined as 150 nM.

As for `COc1ccc2c(=O)c(C)c(-c3ccc(-c4ccc(Cl)c(Cl)c4)nc3)[nH]c2c1`, in the data set with Plasmodium falciparum [3], the IC50 was found to be 200 nM.

Consider `Cc1c(-c2ccc(-c3ccc(OC(F)(F)F)cc3)cn2)[nH]c2ccccc2c1=O`, for which the 50% inhibitory concentration (IC50) with Plasmodium falciparum [3] was above 1000 nM.

For `COc1ccc2c(=O)c(C)c(-c3cncc(-c4ccc(Cl)c(Cl)c4)c3)[nH]c2c1`, the IC50 in the data set on Plasmodium falciparum [3] came to 18 nM. For the same molecule, the values for the solubility kinetic at 200 µM in data set [4] and in data set [5] were 15 µM (≈ 6.17 µg/mL) and 14 µM (≈ 5.76 µg/mL), respectively. Also, the microsomal CLint at 3 µM in data set [6] is 14 µL/min/mg. Further, the hepatocyte CLint at 3 µM in [7] is 4.9 µL/min/1e6 cells. The inhibition at 100 µM in the data set with cytochrome b-c1 complex [8] turned out to be 13%. Besides, the inhibition at 1 µM with cytochrome b-c1 complex [9] stood at 20%.

Take `Cc1c(-c2ccc(-c3ccc(OC(F)(F)F)cc3)nc2)[nH]c2ccc(O)cc2c1=O`: the IC50 in the data set on Plasmodium falciparum [3] is 326 nM.

With `Cc1c(-c2cncc(-c3ccc(OC(F)(F)F)cc3)c2)[nH]c2ccccc2c1=O`, the IC50 in the data set with Plasmodium falciparum [3] amounted to 41 nM. The solubility kinetic at 200 µM worked out at 140 µM (≈ 55.5 µg/mL) in [4] and 3.6 µM (≈ 1.43 µg/mL) in [5]. In addition, in data set [6], the microsomal CLint at 3 µM worked out at 12.5 µL/min/mg. Moreover, the hepatocyte CLint at 3 µM in data set [7] amounted to 1.8 µL/min/1e6 cells. Besides, the inhibition at 100 µM in the data set with cytochrome b-c1 complex [8] stood at 20%. Moreover, the inhibition at 1 µM with cytochrome b-c1 complex [9] turned out to be 25%.

Turning to `Cc1c(-c2ccc(-c3ccc(OC(F)(F)F)cc3)nc2)[nH]c2ccccc2c1=O`, the IC50 in the data set with Plasmodium falciparum [1] was determined as 48 nM; in the data set on Plasmodium falciparum [2], 156 nM. In addition, the solubility kinetic at 200 µM in [4] is 3.2 µM (≈ 1.27 µg/mL); in data set [5], below 1 µM. Further, the microsomal CLint at 3 µM in data set [6] turned out to be 20.6 µL/min/mg.

Turning to `Cc1c(-c2cccc(-c3ccc(OC(F)(F)F)cc3)n2)[nH]c2ccccc2c1=O`, the IC50 in the data set with Plasmodium falciparum [3] stood at 390 nM.

For `COc1ccc2c(=O)c(C)c(-c3cncc(-c4ccc(OC(F)(F)F)cc4)c3)[nH]c2c1`, the IC50 in the data set on Plasmodium falciparum [3] came out at 12 nM; in the data set with Plasmodium falciparum [1] it was 4 nM; in the data set on Plasmodium falciparum [2], 7.2 nM. For the same molecule, the solubility kinetic at 200 µM in [4] was 7.8 µM (≈ 3.33 µg/mL); in [5] it was below 1 µM. For the same molecule, the microsomal CLint at 3 µM in data set [6] amounted to 25.9 µL/min/mg. In [7], the hepatocyte CLint at 3 µM was 1.2 µL/min/1e6 cells. The inhibition at 100 µM in the data set with cytochrome b-c1 complex [8] came to 19%. The inhibition at 1 µM with cytochrome b-c1 complex [9] was 81%.

For `Cc1c(-c2cncc(-c3ccc(Cl)c(Cl)c3)c2)[nH]c2ccccc2c1=O`, the concentration for half-maximal inhibition (IC50) in the data set on Plasmodium falciparum [3] was 40 nM. Moreover, the microsomal CLint at 3 µM in data set [6] was 5.6 µL/min/mg. Moreover, the hepatocyte CLint at 3 µM in [7] came to 9.9 µL/min/1e6 cells.

Turning to `COc1ccc2[nH]c(-c3ccc(-c4ccc(OC(F)(F)F)cc4)nc3)c(C)c(=O)c2c1`, the IC50 with Plasmodium falciparum [3] is above 1000 nM.
